Measured values as given in PMC4412158 (Nature chemical biology, 2014).

Molecular target: T1, phosphoglycerate kinase 1 (hPGK1) (Homo sapiens, UniProt P00558)
T1 sequence (P00558 2-417): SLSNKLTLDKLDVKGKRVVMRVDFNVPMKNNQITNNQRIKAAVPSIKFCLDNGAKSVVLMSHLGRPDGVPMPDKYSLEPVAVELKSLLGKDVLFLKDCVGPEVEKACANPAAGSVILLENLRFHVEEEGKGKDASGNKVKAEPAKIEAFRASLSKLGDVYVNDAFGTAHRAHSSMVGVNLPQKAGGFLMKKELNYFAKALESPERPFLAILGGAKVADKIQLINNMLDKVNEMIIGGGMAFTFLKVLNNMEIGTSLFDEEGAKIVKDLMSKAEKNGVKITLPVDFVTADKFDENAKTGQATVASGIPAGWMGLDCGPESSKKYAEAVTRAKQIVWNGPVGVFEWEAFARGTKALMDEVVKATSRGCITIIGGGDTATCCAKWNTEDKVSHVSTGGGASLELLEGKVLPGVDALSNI
Assay: co-crystal structure hPGK1-3PG-TZ at […] Å
Type: binding

Q: With `COc1cc2nc(N3CCN(C(=O)C4CCCO4)CC3)nc(N)c2cc1OC` (racemic) [TZ, terazosin] as the molecule, how does the “co-crystal structure hPGK1-3PG-TZ at 2.1 Å” value read?
A: we obtained the ternary co-crystallization complexes for both the mouse and the human Pgk1-3PG-TZ
